Columns and labels:
Pythium aphanidermatum [1] = assay: In-vivo validation under greenhouse conditions in cucumber seedlings infected with Pythium aphanidermatum; settings: preventative treatment 24 h before inoculation; 2 types of formulations; 100 to 400 ppm; evaluated 7 days after inoculation
Source text: FIGS. 1-8 show the effect of Licochalcone C (LIC) on cucumber seedlings survival in 8 independent experiments determined as percentage of disease severity 7 days following inoculation with Pythium aphanidermatum. FIGS. 9-11 show effect of Licochalcone C (LIC) on cucumber seedlings survival in 3 independent experiments determined as of disease severity 7 days following inoculation with Rhizoctonia solani. * means that p-value <0.05, ** means that p-value is <0.01, # means that p-value <0.1, n.s. means non-significant difference vs. non-treated plants. For formulation description used for Licochalcone C see Example 7.
To evaluate the effect of a Licochalcone C in infected plants compared to control plants (infected but not treated) the data was analysed by Student's t-test and the p-value is calculated. The minimum number of repeats in each experiment was 3. Results were considered significant if p<0.05. The data presented as mean with standard error mean from biological replicates. * means that p-value <0.05, ** means that p-value is <0.01, # means that p-value <0.1. […]
General description: Pythium aphanidermatum disease severity development was evaluated following preventative treatment by Licochalcone C (LIC) […]

Pythium aphanidermatum [2] = assay: Microplate based screening of bioactivity against Pythium aphanidermatum; format: cell-based; settings: 10 μl of 250 ppm solution + 40 μl inoculum, activity grade x repeats x days of activity/252 x 100
Method: Grow Pythium aphanidermatum on SCH in 90 mm petri plates to get sporulating hyphae. Each plate will produce 50 ml of zoospores suspension which will be enough for bioactivity screening for ten 96-well plates.
Add the same volume (as the suspension) sterile fridge cold 2:PDBC to get 500-2000 spores/ml inoculum. This dilution will result in the amount of 25-100 zoospores in each well. […]
Screening of Plates: • 1) Read out the plate at […]: 3d, 7d, 14d and 21d following the assay start • 2) Calculate the difference of absorbance between each readout and the readout at zero time • 3) Calculate the percentage of growth inhibition of each well at each time point. […]

COc1c(/C=C/C(=O)c2ccc(O)cc2)ccc(O)c1CC=C(C)C [Licochalcone C, (E)-3-[4-hydroxy-2-methoxy-3-(3-methylbut-2-enyl)phenyl]-1-(4-hydroxyphenyl)prop-2-en-1-one]
efficacy in preventing Pythium disease in cucumber seedling (Pythium aphanidermatum [1]): up to 100% | Relative Activity value (%) (Pythium aphanidermatum [2]): 100%

Source: patent publication US20240049707A1, “PESTICIDE COMPOSITIONS OF LICOCHALCONE C” (METABOLIC INSIGHTS LTD., priority 2020, published 2024)
